Test results as given in patent US11358931B2, “Selective androgen receptor modulators (SARMs) and uses thereof” (priority 2007, dated 2022).
Entries after “also recorded” stand apart in the source; their conditions may differ. Where two headings read alike, the source gives them in different places.

What was measured:
[1] = Pharmacokinetics in ovariectomized female rats (plasma, Day 14); assay type: in vivo, rat; conditions: OVX female rats; for AUC: female, po; for AUC / Cmax / Tmax: rat, plasma, PO
Description: (§1) After the 14th dose, approximately 250 μL venous blood was collected via percutaneous jugular puncture from the rats at 0, 0.5, 1, 2, 4 and 6 hours post-dosing. The blood samples were collected into lithium-heparin tubes (Becton Dickinson, Franklin Lakes, N.J.). Plasma fractions were collected for pharmacokinetic analysis. Approximately 24 hours after the last dose, rats were sacrificed by cardiac exsanguination, and blood was collected into serum separator tubes (Becton Dickinson), and the gastrocnemius muscle, plantaris muscle, uterus, clitoral glands, clitoris and inguinal fat pads were isolated, blotted and weighed individually. Uterine weight measurements can be inaccurate in surgically ovariectomized rats due to the potential loss of uterine tissue at the tips of the uterine horns during removal of the ovaries. To minimize this variability, the length of the uterine horns was measured and the uterine weight was reported normalized to uterine length. The left femur and lumbar vertebra L5 were wrapped in saline-soaked gauze and stored at −20° C. for biochemical analysis. The right femur and lumbar vertebrae L3-L4 were collected and stored in 70% ethanol for histomorphometry. The right tibia was collected in formalin for histological analysis. The left tibia was collected on dry ice and stored at −20° C. for measurement of alkaline phosphatase activity.
Pharmacokinetic analysis was performed as described in Example 13.

[2] = test system: ovariectomized mature female rat; test: In vivo assay, ovariectomized mature female rats (12 weeks); conditions: for uterine weight to length ratio versus OVX controls: 0.03-3 mg/kg/day PO; for uterine weight to length ratio versus sham levels: high dose (3 mg/kg); for increase of gastrocnemius muscle mass / mean change in body weight: maximally effective dose 0.3 mg/kg PO; for clitoral weight, activity versus testosterone / clitoral gland weight versus sham: mid dose (0.3 mg/kg); for clitoral gland weight versus sham: 0.3 mg/kg
From the text: In animal models of osteoporosis, androgens increase bone density and strength in male rats (Wakely et al., J Bone & Mineral Research 6: 325-330 (1991) and Vandenput et al., Calcified Tissue International 70: 170-175 (2002)) and female rats (Tobias et al., Am J Physiology 267: E853-E859 (1994) and Coxam et al., Bone 19: 107-114 (1996)). The ovariectomized mature female rat model was used to assess the effects of orally administered compounds provided herein, such as Compound 102, on bone as well as other efficacy and side-effect endpoints including muscle mass, fat mass and clitoral gland weight.
In this assay, approximately three-month old rats were acclimated in a vivarium for one week. After acclimation, rats were anesthetized with Avertin and the ovariectomy (OVX) was performed using the dorsal approach. For the sham procedure, the surgical procedure was conducted per protocol, and the ovaries exteriorized but not removed. After recovery, no further experimental manipulations were performed for seven weeks, at which point the rats were scanned by dual energy x-ray absorptiometry and sorted into experimental groups based upon femoral bone mineral content (BMC). Three dosages of Compound 102 were tested (0.03, 0.3 and 3 mg/kg/day PO). For comparison, ostarine, a known non-steroidal SARM, was tested at the same dosages (0.03, 0.3 and 3 mg/kg/day PO). In addition, reference compounds estradiol and testosterone were administered. Estradiol was administered subcutaneously to one ovariectomized group at a dose of 0.1 mg/kg/day and testosterone propionate was administered subcutaneously to another ovariectomized group at a dose of 1 mg/kg/day.
Treatment continued once daily for 12 weeks, at which point animals were euthanized and tissues were collected for further analysis. Animals received subcutaneous injections of fluorochrome markers for bone histomorphometric analysis. Alizarian Red S was prepared as a 3% solution and given at a dose of 30 mg/kg at the time of the baseline scan. Calcein was administered 10 days and 3 days prior to necropsy.
as §1
Compound 102 and ostarine individually were formulated in a solution containing 5% Tween-80 polysorbate, 90% PEG-400 polyethylene glycol, and 5% polyvinylpyrrolidone K30. The mixture was stirred and sonicated in a water bath for 30 minutes until the compound dissolved into a solution. After sonication, 1% carboxymethyl cellulose (CMC) in water was added to the solution in a 9:1 ratio (9 parts CMC/water solution to 1 part PEG-400/Tween-80/PVP). Compound 102 and ostarine were administered orally in a volume of 4 mL/kg. […]

[3] = Toxicokinetics in Sprague Dawley rats (14-day oral study); assay type: in vivo, rat
Description: A Sprague Dawley Rat model was used to study oral toxicity and toxicokinetics. Animals were assigned to groups by a stratified randomization scheme designed to achieve similar group mean body weights and the groups were randomly assigned to a dosing to provide control of bias.
All animals were dosed via oral gavage once daily for 14 days. The animals were evaluated for changes in clinical signs (mortality/morbidity observations, twice daily), cage side observations (general appearance and behavior), food consumption (quantitatively measured by weighing), body weights, clinical pathology indices including serum chemistry, hematology, coagulation and urinalysis, and other parameters. Blood samples were collected for toxicokinetics analysis from Groups 6-10 at various time points on Days 1 and 14 (Group 6 4 hours post dose; Groups 7-10 at 1, 4 and 12 hours or 2, 8 and 24 hours). The animals were fasted for at least 8 hours prior to blood collections for serum chemistry and urine collection. Serum chemistry parameters tested included alanine aminotransferase, total protein, aspartate aminotransferase, albumin, alkaline phosphatase, globulin, gamma-glutamyl-transferase, albumin/globulin ratio, lactate dehydrogenase, glucose, total bilirubin, cholesterol, urea nitrogen, triglycerides, creatinine, sodium, calcium, potassium, phosphorus and chloride. Hematology parameters analyzed included red blood cell count, reticulocyte count, hemoglobin concentration, red blood cell distribution width, mean corpuscular volume, mean platelet volume, mean corpuscular hemoglobin concentration, white blood cell count and differentials and mean corpuscular hemoglobin. Urinalysis parameters included color/character, ketones, specific gravity, bilirubin, pH, occult blood, protein, glucose and microscopics. Main study animals were euthanized on Day 15. At termination, a full necropsy was conducted and all tissues were collected, preserved, processes and examined microscopically from Groups 1 and 5, and target organs (liver and kidney) from Groups 2-4, by a veterinary pathologist certified by the American College of Veterinary Pathologists.

[4] = 0.03 mg/kg, Day 14, 0.03 mg/kg, mean ± SD of n = 4, read-out: AUC6
[5] = 0.03 mg/kg, Day 14, 0.03 mg/kg, n = 4, 0 hr conc. substituted for 24 hr, read-out: AUC24
[6] = 0.3 mg/kg, Day 14, 0.3 mg/kg, mean ± SD of n = 4, read-out: AUC6
[7] = 0.3 mg/kg, Day 14, 0.3 mg/kg, n = 4, 0 hr conc. substituted for 24 hr, read-out: AUC24
[8] = 3 mg/kg, Day 14, 3 mg/kg, mean ± SD of n = 4, read-out: AUC6
[9] = 3 mg/kg, Day 14, 3 mg/kg, n = 4, 0 hr conc. substituted for 24 hr, read-out: AUC24
[10] = Day 14, 0.03 mg/kg, mean ± SD of n = 4
[11] = Day 14, 0.3 mg/kg, mean ± SD of n = 4
[12] = Day 14, 3 mg/kg, mean ± SD of n = 4
[13] = OVX rats, 12 weeks, 3-point bending
[14] = OVX rats, high dose (3 mg/kg/day PO)
[15] = OVX rats, low dose (0.03 mg/kg/day PO)

For C[C@](O)(COc1ccc(C#N)cc1)C(=O)Nc1ccc(C#N)c(C(F)(F)F)c1 [ostarine], the “systemic exposure compared with Compound 102” value ([1]; equal doses) was “significantly higher exposure”, the AUC [1, 4] was 0.125 ± 0.022 µg·h/mL and the AUC [1, 5] was 0.552 ± 0.118 µg·h/mL. For the same compound, the AUC [1, 6] was 1.08 ± 0.105 µg·h/mL, the AUC [1, 7] was 4.14 ± 0.448 µg·h/mL and the AUC [1, 8] was 5.04 ± 1.3 µg·h/mL. It also gave an AUC [1, 9] of 20.6 ± 3.65 µg·h/mL, a Cmax [1, 10] of 0.035 ± 0.007 µg/mL and a Tmax [1, 10] of 156 ± 144 min. It also gave a Cmax [1, 11] of 0.332 ± 0.04 µg/mL, a Tmax [1, 11] of 36 ± 12 min and a Cmax [1, 12] of 1.48 ± 0.429 µg/mL. For the same compound, the Tmax [1, 12] was 66 ± 36 min, the “uterine weight to length ratio versus OVX controls” value [2] was “increased uterine weight to length ratio above estrogen deficient OVX controls in a dose dependent manner” and the “alkaline phosphatase activity from isolated tibiae” value ([2]; OVX rats, 12 weeks) was “significantly increased”. For the same compound, the “whole femur bending stiffness” value [2, 13] was “slightly more effectively than Compound 102”, the “whole femur bending strength” value [2, 13] was “slightly less effectively than Compound 102” and the cortical bone area ([2]; OVX rats, 12 weeks, histomorphometry) was “increased cortical bone area”. The serum osteocalcin ([2]; OVX rats, 12 weeks, versus vehicle-treated OVX controls) was “significantly suppressed”, the “body weight gain from baseline compared to vehicle” value ([2]; OVX rats, 12 weeks, Compound 102/ostarine 0.03, 0.3, 3 mg/kg/day PO, testosterone propionate 1 mg/kg/day s.c.) was “significantly increased weight gain compared to vehicle at the mid and high dose levels; also recorded: at the low dose there was no significant difference from vehicle” and the “inguinal fat pad weight” value ([2]; OVX rats, 12 weeks, any dose, estradiol 0.1, testosterone propionate 1 mg/kg/day s.c.) was “neither Compound 102 nor ostarine significantly affected inguinal fat pad weight at any dose”. The “uterine weight to length ratio versus sham levels” value ([2]; OVX rats) was “significantly (P<0.01) increased above sham levels”, the clitoral gland weight [2, 14] was “increased clitoral gland weight” and the clitoral weight [2, 14] was “significantly increased clitoral weight”. The clitoral gland weight [2, 15] was “Neither Compound 102 nor ostarine affected”, the clitoral weight [2, 15] was “did not affect clitoral weight” and the “uterine weight to length ratio versus sham operated controls” value [2, 15] was “significantly (P<0.01) less than sham operated controls”. The “increase of gastrocnemius muscle mass” value ([2]; OVX rats) was 10%, the “mean change in body weight” value ([2]; OVX rats) was “+65 grams” and the “clitoral weight, activity versus testosterone” value ([2]; OVX rats) was “not significantly different from testosterone”. The “clitoral gland weight versus sham” value ([2]; OVX rats) was “only slightly above the sham level; also recorded: statistically significant (P<0.05)”.
In the case of N#Cc1ccc(N2CCC[C@@H]2[C@@H](O)C(F)(F)F)cc1C(F)(F)F [Compound 102, R,R-4-(2-(1-Hydroxyl-2,2,2-trifluoroethyl)-pyrrolidinyl)-2-trifluoromethyl-benzonitrile], the “sex difference of systemic exposure” value ([3]; Day 1) is reported as “higher systemic exposure in females across all dose levels”, the “systemic exposure at 700 mg/kg/day” value ([3]; Day 1, 700 mg/kg/day) is reported as “not increased, indicating that absorption was saturated” and the “systemic exposure versus dose” value ([3]; Day 1, male and female rats) is reported as “increased with increasing dose up to 300 mg/kg/day”. The “effect of repeat administration on systemic exposure” value ([3]; Day 14 vs Day 1, more pronounced in high dose groups) was “decreased systemic exposure”, the AUC [1, 4] was 0.056 ± 0.056 µg·h/mL and the AUC [1, 5] was 0.119 ± 0.09 µg·h/mL. The AUC [1, 6] was 0.051 ± 0.041 µg·h/mL, the AUC [1, 7] was 0.229 ± 0.289 µg·h/mL and the AUC [1, 8] was 0.404 ± 0.199 µg·h/mL. It also gave an AUC [1, 9] of 0.88 ± 0.326 µg·h/mL, a Cmax [1, 10] of 0.039 ± 0.028 µg/mL and a Tmax [1, 10] of 210 ± 114 min. It also gave a Cmax [1, 11] of 0.04 ± 0.034 µg/mL, a Tmax [1, 11] of 30 ± 24 min and a Cmax [1, 12] of 0.207 ± 0.087 µg/mL. The Tmax [1, 12] was 30 min, the “uterine weight to length ratio versus OVX controls” value [2] was “increased uterine weight to length ratio above estrogen deficient OVX controls in a dose dependent manner” and the “uterine weight to length ratio versus sham levels” value ([2]; OVX rats) was “significantly (P<0.01) increased above sham levels”. The clitoral gland weight [2, 14] was “increased clitoral gland weight”, the clitoral weight [2, 14] was “significantly increased clitoral weight” and the “increase of uterine weight to length ratio compared with ostarine” value ([2]; OVX rats, low and mid dose, P<0.01) was “significantly less than ostarine”. The clitoral gland weight [2, 15] was “Neither Compound 102 nor ostarine affected”, the clitoral weight [2, 15] was “did not affect clitoral weight” and the “uterine weight to length ratio versus sham operated controls” value [2, 15] was “significantly (P<0.01) less than sham operated controls”. The “increase of gastrocnemius muscle mass” value ([2]; OVX rats) was 17%, the “mean change in body weight” value ([2]; OVX rats) was “+66 grams” and the “clitoral weight, activity versus testosterone” value ([2]; OVX rats) was “significantly less activity versus testosterone”. For the same compound, the “clitoral gland weight versus sham” value ([2]; OVX rats) was “only slightly above the sham level; also recorded: did not quite achieve statistical significance versus sham” and the “uterine weight to length ratio versus sham operated controls” value ([2]; OVX rats, mid dose (0.3 mg/kg/day PO)) was “significantly (P<0.01) less than sham operated controls”.
